Laboratory results: patent publication US9512116B2, “Compounds that modulate intracellular calcium” (CALCIMEDICA, INC., priority 2012, dated 2016)
Read-outs that look alike come from different tables or passages of the source.

What was measured:
Orai1/STIM1 = target: T1, Orai1/STIM1 (Homo sapiens, UniProt Q96D31); test: Fluorescence-based assay of store-operated calcium entry in Orai1/STIM1 stable cells; assay type: cell-based; conditions: HEK-293 cells stably expressing human STIM1 and Orai1, Peak-Basal signal, read-out: Orail/STIM1 (IC50, μmol)
T1 construct: expressed in transfected cells; host or cells: HEK-293
From the text: Fluorescence-based assays are used for screening the compounds described herein, such as compounds of Formulas (I), (II), (III), (IV) or (V) which modulate intracellular calcium.
A. Fluorescence-Based Assay of Store-Operated Calcium Entry in Orai1/STIM1 Stable Cells.
Cells stably expressing recombinant human STIM1 and Orai1 are generated by transfecting a human Orai1 expression plasmid (pcDNA3.1-Orai1-cmyc) into HEK-293 cells stably overexpressing human STIM1 (Roos et al. 2005 JCB 169(3): 435-445). Colonies of cells stably expressing both STIM1 and Orai1 proteins are selected and then subcloned by limiting dilution. Cells were cultured at 37° C./6% CO2 in complete medium with 10% FBS and appropriate selection markers.
The day prior to performing the assay Orai1/STIM1 stable cells are plated in 50 μL of complete medium at 90-95% confluence in a 384 well plate. Cells are grown at 37° C./6% CO2 overnight. On the day of the assay, 1.5 μM fluo-4-AM (Invitrogen) in complete medium is added to the cells, which are then incubated for 1 hour at RT. Cells are washed once in Ca^2+-free HBSS (Hank's buffered saline solution) and 35 μl of Ca^2+-free HBSS is added to each well. Test compounds are added to wells in a 10 μL Ca^2+-free HBSS solution, prepared at 4.5× the desired final concentration, and incubated for 30 minutes at RT. The initial baseline fluorescence signal is then measured with a FLIPR^384 (Molecular Devices) plate reader. Calcium entry is initiated by adding 5 μl of 10×CaCl2 (10 mM) in HBSS, and changes in cellular fluorescence are measured with the FLIPR^384 plate reader. In each well, the magnitude of the fluorescence signal as a result of calcium entry into the cell is determined by calculating the difference between the peak fluorescence signal measured after calcium addition and the initial baseline fluorescence signal (designated Peak-Basal). IC50 values are typically calculated as the concentration that inhibited 50% of the Peak-Basal signal.

RBL-2H3 cells = test: Fluorescence-based assay of store-operated calcium entry in RBL-2H3 cells; assay type: cell-based; conditions: Rattus norvegicus, thapsigargin, Upslope, read-out: RBL-2H3 (IC50, μmol)
Experimental: B. Fluorescence-Based Assay of Store-Operated Calcium Entry in RBL-2H3 Cells.
RBL-2H3 cells are obtained from ATCC and maintained in complete medium with 10% FBS at 37° C./6% CO2.
The day prior to performing the assay, RBL-2H3 cells are plated in 50 μl of complete medium in a 384 well plate. Cells are grown at 37° C./6% CO2 overnight and grow to 50-60% confluence by the next day. On the assay day, 1.5 μM Fluo-4-AM dye (Invitrogen) in complete medium is added and incubated for 1 hour at RT. Cells are washed twice in Ca^2+-free HBSS buffer and 35 μL Ca^2+-free HBSS buffer is added to each well. 10 μL of a test compound prepared in a Ca^2+-free HBSS solution at 4.5× of the desired concentration is added to a well and incubated for 5 minutes at RT. 10 μL of thapsigargin prepared in a Ca^2+-free HBSS solution at 5.5× of the desired concentration (5.5 uM) is added to each well and incubated for an additional 25 minutes. The initial baseline fluorescence signal is measured with a FLIPR^384 (Molecular Devices) plate reader. 5 μL of 12× calcium in HBSS (12 mM) is added and changes in cellular fluorescence are measured with the FLIPR^384 plate reader. In each well, the change in the fluorescent signal as a function of time due to calcium entry into the cell is determined by calculating the difference between the fluorescent signal measured 7 seconds after calcium addition and the initial baseline fluorescence signal at time zero (t=0). This parameter is designated Upslope. The IC50 value is calculated as the concentration at which 50% of the Upslope is inhibited.

T1 sequence (Q96D31 whole entry): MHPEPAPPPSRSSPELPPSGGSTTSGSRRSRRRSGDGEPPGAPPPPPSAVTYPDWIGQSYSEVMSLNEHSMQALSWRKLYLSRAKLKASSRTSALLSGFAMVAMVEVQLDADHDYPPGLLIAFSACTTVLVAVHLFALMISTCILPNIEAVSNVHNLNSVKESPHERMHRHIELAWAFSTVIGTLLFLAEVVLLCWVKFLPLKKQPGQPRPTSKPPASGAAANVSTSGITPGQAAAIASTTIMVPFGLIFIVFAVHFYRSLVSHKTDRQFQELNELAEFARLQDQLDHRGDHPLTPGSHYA

IC50 (Orai1/STIM1; Table IV) [nM]	IC50 (Orai1/STIM1; Table III) [nM]	SMILES	further results
< 600		Cn1nc(-c2nccs2)cc1-c1ccc(NC(=O)c2c(F)cccc2F)s1 [Compound 6, (2,6-difluorophenyl)-N-[5-[1-methyl-3-(1,3-thiazol-2-yl)pyrazol-5-yl](2-thienyl)]carboxamide]	
< 600		Cn1nc(-c2nccs2)cc1-c1ccc(NC(=O)c2ccc(F)cc2F)s1 [Compound 7, (2,4-difluorophenyl)-N-[5-[1-methyl-3-(1,3-thiazol-2-yl)pyrazol-5-yl](2-thienyl)]carboxamide]	
< 600		Cn1nc(-c2nccs2)cc1-c1ccc(NC(=O)c2c(F)cc(F)cc2F)s1 [Compound 10, (2,4,6-trifluorophenyl)-N-[5-[1-methyl-3-(1,3-thiazol-2-yl)pyrazol-5-yl](2-thienyl)]carboxamide]	
	< 600	Cc1oc(C(F)(F)F)nc1-c1ccc(NC(=O)c2c(F)cccc2F)nc1 [Compound 14, 2,6-difluoro-N-(5-(5-methyl-2-(trifluoromethyl)oxazol-4-yl)pyridin-2-yl)benzamide]	
600 to 1200		CCn1nc(-c2nccs2)cc1-c1ccc(NC(=O)c2c(F)cccc2F)s1 [Compound 15]	
	< 600	Cc1ccccc1C(=O)Nc1ccc(-c2nc(C(F)(F)F)oc2C)cn1 [Compound 15]	
600 to 1200		CCn1nc(-c2nccs2)cc1-c1ccc(NC(=O)c2c(F)cc(F)cc2F)s1 [Compound 16]	
	< 600	Cc1oc(C(F)(F)F)nc1-c1ccc(NC(=O)c2ccccc2F)nc1 [Compound 16]	
	< 600	Cc1oc(C(F)(F)F)nc1-c1ccc(NC(=O)c2c(F)cncc2F)nc1 [Compound 17, 3,5-difluoro-N-(5-(5-methyl-2-(trifluoromethyl)oxazol-4-yl)pyridin-2-yl)isonicotinamide]	
	< 600	Cc1oc(C(F)(F)F)nc1-c1ccc(NC(=O)c2cccc(F)c2C)nc1 [Compound 19, 3-fluoro-2-methyl-N-(5-(5-methyl-2-(trifluoromethyl)oxazol-4-yl)pyridin-2-yl)benzamide]	
< 600		Cn1nc(-c2ccccc2F)cc1-c1ccc(NC(=O)c2c(F)cc(F)cc2F)s1 [Compound 20]	IC50 (RBL-2H3 cells; Table IV): < 600 nM
	< 600	Cc1cccc(F)c1C(=O)Nc1ccc(-c2nc(C(F)(F)F)oc2C)cn1 [Compound 21]	IC50 (RBL-2H3 cells; Table III): < 600 nM
600 to 1200		Cn1nc(-c2ccccc2F)cc1-c1ccc(NC(=O)c2c(F)ccc(F)c2F)s1 [Compound 21]	IC50 (RBL-2H3 cells; Table IV): 600 to 1200 nM
< 600		Cn1nc(-c2ccccc2F)cc1-c1ccc(NC(=O)c2c(F)cccc2F)s1 [Compound 22]	IC50 (RBL-2H3 cells; Table IV): < 600 nM
	< 600	CCc1oc(C(F)(F)F)nc1-c1ccc(NC(=O)c2ccccc2F)nc1 [Compound 24, N-(5-(5-ethyl-2-(trifluoromethyl)oxazol-4-yl)pyridin-2-yl)-2-fluorobenzamide]	
	< 600	CCc1oc(C(F)(F)F)nc1-c1ccc(NC(=O)c2c(F)cccc2F)nc1 [Compound 25, N-(5-(5-ethyl-2-(trifluoromethyl)oxazol-4-yl)pyridin-2-yl)-2,6-difluorobenzamide]	
600 to 1200		Cn1nc(-c2ccccn2)cc1-c1ccc(NC(=O)c2c(F)cc(F)cc2F)s1 [Compound 27, 2,4,6-trifluoro-N-(5-(1-methyl-3-(pyridin-2-yl)-1H-pyrazol-5-yl)thiophen-2-yl)benzamide]	
< 600		Cn1nc(-c2ccccn2)cc1-c1ccc(NC(=O)c2c(F)cccc2F)s1 [Compound 28, 2,6-difluoro-N-(5-(1-methyl-3-(pyridin-2-yl)-1H-pyrazol-5-yl)thiophen-2-yl)benzamide]	
